Entries after “also recorded” stand apart in the source; their conditions may differ. Where no end group is shown, it is not given here.

Series [1] deals with mixed cardiac cells (CMs and non-CMs). As to conditions: for toxicity, in words: nuclei counts of CMs and non-CMs.
The next series deals with GRK2. As to conditions: read-out: GRK2 IC50; biochemical IC50, radiometric kinase inhibition assay; ref 40 (citation marks lost in text); cited from earlier work.
Series [2] concerns mixed cardiac cells. As to the kind of experiment: High-content hypertrophy assay (Hypertrophy Score), PE-LIF-stimulated mixed cardiac cells treated with inhibitors. Conditions: 96 h; for antihypertrophic effect (Hypertrophy Score), in words: comparison at 8 μM.
In series [3] the test system is purified CMs. As to the kind of experiment: qPCR of hypertrophic gene expression (Nppa, Nppb) in purified CMs. Type of series: cell-based, rat. As to conditions: 100 µM PE + 50 ng/ml LIF, 24 h.
Series [4] relates to mixed cardiac cells. As to the kind of experiment: Profiling of hypertrophic stimulants in mixed cardiac cell culture (Hypertrophy Score). As to conditions: stimulants at three concentrations.
For series [5], the system named is purified CMs. As to the kind of experiment: Profiling of hypertrophic stimulants in purified CM culture (Hypertrophy Score).

As for `Cc1[nH]c(/C=C2\C(=O)Nc3ccc(C(=O)N[C@H](C)c4ccc(F)cc4)cc32)c(C)c1NC(=O)C(=O)c1ccco1` [Compound 3], in series [1] (non-CM nuclei counts, 96 h), the “reduction in non-CM numbers (antiproliferative activity), in words” value was “most pronounced”. In addition, the IC50 in the series on GRK2 was […]. For the same compound, in the series on mixed cardiac cells [2] (PE-LIF (20 μM, 50 ng/mL)), the “antihypertrophic effect (Hypertrophy Score), in words” value (“antihypertrophic effect” below) was “partially reduced the Hypertrophy Score; also recorded: surprisingly poor cellular efficacy”.
As to `Cc1[nH]c(/C=C2\C(=O)Nc3ccc(C(=O)N[C@H](C)c4ccc(F)cc4)cc32)c(C)c1NC(=O)[C@@H](O)c1ccco1` [Compound 4a], in the series on mixed cardiac cells [2] (PE-LIF (20 μM, 50 ng/mL)), the “concentration from which PE-LIF-induced Hypertrophy Score is significantly reduced” value was at least 3 µM and the “antihypertrophic effect” value is reported as “most potent cellular inhibitor; also recorded: clear cellular effects”. The IC50 in the series with mixed cardiac cells [2] (Rattus norvegicus, read-out: cellular IC50 (antihypertrophic effects)) came out at 4.7 µM. Also, the “PE-LIF-induced upregulation of Nppa and Nppb, in words” value in the series with purified CMs [3] is “prevented PE-LIF-induced upregulation of Nppa and Nppb”.
Consider `Cc1[nH]c(/C=C2\C(=O)Nc3ccc(C(=O)N[C@H](C)c4ccc(F)cc4)cc32)c(C)c1NC(=O)[C@H](O)c1ccco1` [Compound 4b], for which the “reduction in non-CM numbers (antiproliferative activity), in words” value in series [1] (non-CM nuclei counts, 96 h) is given as “absent”. In addition, the “antihypertrophic effect” value with mixed cardiac cells [2] (PE-LIF (20 μM, 50 ng/mL)) is listed as “no effect at any concentration; also recorded: lacked cellular efficacy; also recorded: no antihypertrophic efficacy”.
`Cc1[nH]c(/C=C2\C(=O)Nc3ccc(C(=O)N[C@H](C)c4ccc(F)cc4)cc32)c(C)c1NC(=O)c1ccoc1` [Compound 5b]: the “toxicity, in words” value in series [1] is on record as “neither toxicity”. In addition, the “antihypertrophic effect” value in the series with mixed cardiac cells [2] (PE-LIF (20 μM, 50 ng/mL)) is recorded as “nor significant antihypertrophic effects; also recorded: surprisingly poor cellular efficacy”.
For the compound `Cc1nc(C(=O)Nc2c(C)[nH]c(/C=C3\C(=O)Nc4ccc(C(=O)N[C@H](C)c5ccc(F)cc5)cc43)c2C)c(C)s1` [Compound 5d], the “concentration at which CMs are affected” value in series [1] (CM nuclei counts, 96 h) was at least 2000 nM. Further, the “concentration from which non-CM numbers are reduced” value in series [1] (non-CM nuclei counts, 96 h) was at least 500 nM. Also, the “toxicity, in words” value in series [1] is reported as “excluded due to toxicity”. The “antihypertrophic effect” value in the series with mixed cardiac cells [2] (PE-LIF (20 μM, 50 ng/mL)) is reported as “appeared to reduce hypertrophy”.
Regarding `Cc1[nH]c(/C=C2\C(=O)Nc3ccc(C(=O)N[C@H](C)c4ccc(F)cc4)cc32)c(C)c1NC(=O)C1CCOCC1` [Compound 5i], in the series with mixed cardiac cells [2] (PE-LIF (20 μM, 50 ng/mL)), the “antihypertrophic effect” value was “partially reduced the Hypertrophy Score”.
As for `Cc1[nH]c(/C=C2\C(=O)Nc3ccc(C(=O)N[C@H](C)c4ccc(F)cc4)cc32)c(C)c1NC(=O)[C@H]1CCC(=O)O1` [Compound 5k], in series [1], the “toxicity, in words” value is recorded as “neither toxicity”. In the series with mixed cardiac cells [2] (PE-LIF (20 μM, 50 ng/mL)), the “antihypertrophic effect” value was “nor significant antihypertrophic effects; also recorded: lacked cellular efficacy”.
With `Cc1nc2c(C(=O)Nc3c(C)[nH]c(/C=C4\C(=O)Nc5ccc(C(=O)N[C@H](C)c6ccc(F)cc6)cc54)c3C)cccc2[nH]1` [Compound 5m], the “antihypertrophic effect” value in the series on mixed cardiac cells [2] (PE-LIF (20 μM, 50 ng/mL)) is “partially reduced the Hypertrophy Score”.
`NC[C@H](O)c1ccc(O)c(O)c1` [NE, norepinephrine]: in the series on mixed cardiac cells [4], the “hypertrophic response (Hypertrophy Score), in words” value (“hypertrophic response” below) was “weaker response than PE alone”.
For `CNC[C@H](O)c1cccc(O)c1` [PE, phenylephrine], the “hypertrophic response” value with mixed cardiac cells [4] is “strongest response”.
The same measure, in the same setting: the result for “endothelin-1 (CSCSSLMDKECVYFCHLDIIW; not fully specified (bridges); ends and bridges not checked; UniProt P05305 53-73, looked up) [ET-1]” reads “robust hypertrophic effects”.
On to leukemia inhibitory factor [LIF], for which the figures for the “hypertrophic response” value in the series with mixed cardiac cells [4] and in the series on purified CMs [5] were “little to no effect” and “significantly increased the Hypertrophy Score”, respectively.
Turning to transforming growth factor beta [TGFβ], the “hypertrophic response” value in the series on mixed cardiac cells [4] is recorded as “little to no effect”.

By IC50 is commonly meant the point on the concentration scale where inhibition reaches its midpoint.
